Tests used:
[1] = tested on: human patient-derived gel-like mucins; experiment: Example 5: in vivo degradation of gel-like mucins embedded in mouse abdominal cavity; set-up: species or system C57 male mice; settings: 80 ug injected 24 h after embedding 0.30 g mucins, sacrificed after 48 h
Protocol: The experiment included twenty C57 male mice aged 6-8 weeks. Five groups were set up in the experiment, including an experimental group (mucus+EatA, 5 mice), a control group (mucus+PBS, 5 mice), a bromelain group (mucus+bromelain, 5 mice), a negative sham operation group (minimal invasive open operation performed without adding mucins and enzyme, 3 mice), and a reference group (minimal invasive open operation performed with adding EatA protease, 2 mice). […] After 48 h, the mice were sacrificed, laparotomy was performed (results of abdominal examination after laparotomy were shown in FIG. 9) and the whole amount of gel-like mucins in the mice were removed, weighed using the method described in Example 2, counted and compared with the final amount of gel-like mucins remaining in three groups (experimental group (mucus+EatA), control group without enzyme (mucus+PBS) and bromelain group (mucus+bromelain)) to which gel-like mucins was added as a substrate, and results were shown in FIG. 8.

gel-like mucins [2] = experiment: Example 2: mass loss of gel-like mucins, EatA versus bromelain; format: biochemical, human; settings: 0.10 g mucins, 500 uL PBS, 37° C., 6 h
Text: (§1) Since mucins of different origins and mucins associated with the mucus-related disease have different expression patterns and post-translational modifications, different mucins of clinical pathological origin and mixtures thereof are used in the present application. Preferably, mucins of clinical peritoneal pseudomyxoma origin are used. In the present application, firstly, gel-like mucins from the abdominal cavity of patients with clinical peritoneal pseudomyxoma are collected, after protein precipitation with 30% to 100% ammonium sulfate, cells and tissue fragments, adipose tissue that possibly doped in the collection process of mucins are selected and removed, and then dialyzed and filtered through a 100 KDa dialysis bag. Through the use of sulfate detection test paper, the sulfate concentration in the dialysate and the inner side of the dialysis bag is confirmed. When the sulfate concentration is less than 200 mg/L, the dialysis is terminated and gel-like mucins can be seen. This sample is collected and used as the substrate for in vitro tests to examine the degradation ability of serine protease EatA on mucins. Some examples used mucins removed from the abdominal cavity of clinical patients without purification. […]

[3] = tested on: miscellaneous protein derived from the patient's abdominal cavity; experiment: Example 4: specificity, SDS-PAGE of miscellaneous proteins in homogenized patient mucins; format: biochemical, human; settings: 2-10 ug protease, 100 μL homogenized mucins, 200 uL, 6 h
Protocol: Untreated mucins derived from clinical patients were briefly cleared to remove cellular tissue. 0.20 g of the above-mentioned mucins was accurately weighed and placed in 1 mL of PBS solution, 3-4 magnetic beads with a diameter of 1 mm were added, and then a resulting mixture was frozen and shaken at −30° C. for homogenization, so as to destroy the gel-like morphology of mucins, and release the miscellaneous protein from patients with mixed gel-like mucins. 100 μL of the homogenized mucins solution was added with 2-10 ug of protease (bromelain or serine protease EatA), respectively, and the reaction was performed in a 200 uL reaction system. After 6 h of reaction, samples were respectively taken for SDS-PAGE detection, and the total protein after fragmentation, which was the patient-derived miscellaneous protein in the abdominal cavity/abdominal mucins of the patient, was analyzed.

[4] = tested on: mucins after mucus formation; settings: background statement; cited from earlier work
[5] = biological target: gel-like mucins from the abdominal cavity of patients with clinical peritoneal pseudomyxoma
[6] = biological target: mucus from mucinous ovarian cancer (clinical source)
[7] = biological target: mucus from mucinous appendiceal adenocarcinoma (clinical source)
[8] = tested on: gel-like mucins from the abdominal cavity of patients with clinical peritoneal pseudomyxoma; experiment: Example 1: degradation of gel-like mucins by EatA, visual/pipette observation; format: biochemical, human; settings: about 80 μg enzyme, 0.30 g mucins, 500 ul, 37° C., 3 h
Text: as §1

[9] = tested on: gelatin, lactoferrin and CD43, BSA and BSM; settings: previous studies; cited from earlier work
[10] = Example 5: tolerability in mice after intraperitoneal injection; format: in vivo, C57 male mice; settings: mice injected with enzyme
gel-like mucins [11] = experiment: Example 3: temperature, pH and time dependence of mucin degradation; format: biochemical, human
Text: Since mucins of different origins and mucins associated with the mucus-related disease have different expression patterns and post-translational modifications, different mucins of clinical pathological origin and mixtures thereof are used in the present application. Preferably, mucins of clinical peritoneal pseudomyxoma origin are used. In the present application, firstly, gel-like mucins from the abdominal cavity of patients with clinical peritoneal pseudomyxoma are collected, after protein precipitation with 30% to 100% ammonium sulfate, cells and tissue fragments, adipose tissue that possibly doped in the collection process of mucins are selected and removed, and then dialyzed and filtered through a 100 KDa dialysis bag. Through the use of sulfate detection test paper, the sulfate concentration in the dialysate and the inner side of the dialysis bag is confirmed. When the sulfate concentration is less than 200 mg/L, the dialysis is terminated and gel-like mucins can be seen. This sample is collected and used as the substrate for in vitro tests to examine the degradation ability of serine protease EatA on mucins. Some examples used mucins removed from the abdominal cavity of clinical patients without purification.
During the experiment, 0.10 g of gel-like mucins was accurately weighed for each single reaction, 20 μg of aminoprotease EatA was added, the reaction was performed in 500 uL of solution system, and the weighing method for the remaining gel-like mucins was the same as that in Example 2. The control group was performed under the same conditions except that the serine protease EatA was not added, and three reactions were set in each group as statistical replicates. Due to the hydrating nature of gel-like mucins, the gel-like mucins absorbed water and swelled when in solution, resulting in a certain weight increase in the control group when finally weighed.
Among them, the experiment on temperature gradient was conducted in normal saline with pH=7.1, and results were shown in FIG. 4; in the pH experiment, the reaction system used was a solution system with different pH values based on 0.9% normal saline, and the reaction temperature was 37° C., and results are shown in FIG. 5; the reaction time for both the above-mentioned experiments was 6 h.
In the experiment regarding the degradation time, based on the temperature curve and pH curve, the experiment was carried out in PBS buffer with pH=7.2-7.4 at 37° C.

[12] = tested on: mucus (sputum), mucous colon cancer and the like of patients with chronic obstructive pulmonary pneumonia; experiment: Applicant's related studies: degradation of COPD sputum and mucous colon cancer mucus; format: biochemical, human; settings: relevant study results of the applicant
[13] = tested on: mucinous ovarian cancer (MOC) mucus; experiment: Example 6: viscosity of mucinous ovarian cancer mucus after incubation (rheometer); format: biochemical, human; settings: 50 μg enzyme, 0.50 mL mucus, 750 uL, 37° C., 600 rpm, 20 h; control about 2000 mPa s
Protocol: (§2) This example carried out a degradation experiment on mucus from mucinous ovarian cancer and mucinous appendiceal adenocarcinoma using the serine protease EatA. 0.50 mL of the above-mentioned two new types of mucinous carcinoma mucus from clinical sources were weighed directly into test tubes, 50 μg of EatA serine protease dissolved in 0.25 mL of PBS buffer was added and then incubated in a total 750 uL reaction system at 37° C., 600 rpm for 20 h. For each type of mucinous carcinoma mucus sample, a control group was set up with only the addition of an equal volume of PBS, for a total of four experiments, each set up with three replicates. The viscosity of the incubated experimental samples was measured under an Anton Paar rheometer, probe model pp25, sample spacing 0.45 mm. After each sample was subjected to pre-shearing at a shearing frequency of 5 rad/s for 20 s, a total of 36 sample point data was obtained for each group of experiments by reading a total of 12 data at a shearing frequency of 10 rad/s every 5 s period for 60 s.

[14] = tested on: mucinous appendiceal adenocarcinoma (MAA) mucus; experiment: Example 6: viscosity and appearance of mucinous appendiceal adenocarcinoma mucus after incubation; format: biochemical, human; settings: 50 μg enzyme, 20 h
Protocol: as §2

With bromelain [reference compound] the “amount of gel-like mucins remaining” value [1] was “more than 0.30 g”, the “mass loss of gel-like mucins (in words)” value (gel-like mucins [2]; increasing enzyme concentration) was “negative” and the “degradation of patient-derived miscellaneous proteins (SDS-PAGE)” value [3] was “the miscellaneous protein showed degradation”.
In the case of elastase, the “mucin degradation after mucus formation” value [4] is given as “inefficient”.
For pancreatin, the “mucin degradation after mucus formation” value [4] is given as “inefficient”.
Work on “serine protease EatA (serine protease EatA-EatAp with only the passenger domain) (enzyme)” yielded a mass loss of gel-like mucins [5] of 90.3%, a viscosity of mucus (rheometer) [6] of 670 mPa s and a viscosity of mucus (rheometer) [7] of 7 mPa s.
For “serine protease EatA: autotransporter serine protease from enterotoxigenic Escherichia coli H10407; passenger domain SEQ ID NO 2, full length SEQ ID NO 1”, the “degradation of gel-like mucins (observation)” value [8] is given as “obvious degradation of gel-like mucins”, the “degradation of common human glycoproteins and non-human proteins” value [9] is given as “did not degrade” and the “survival from the beginning of the experiment” value [10] is given as “more than 100 days”. For the same substance, the “adverse reactions, behavior and body weight” value ([10]; compared with non-injected group) was “without adverse reactions”, the “pH of maximum degradation efficiency” value (gel-like mucins [11]; 20 μg enzyme, 0.10 g mucins, 0.9% normal saline based, 37° C., 6 h) was roughly 8 and the “mass loss of gel-like mucins” value (gel-like mucins [11]; 20 μg enzyme, 0.10 g mucins, PBS pH=7.2-7.4, 37° C., 10.5 h) was 80%. For the same substance, the “temperature of maximum enzyme activity” value (gel-like mucins [11]; 20 μg enzyme, 0.10 g mucins, normal saline pH=7.1, 6 h) was 34-37 °C, the “optimal working environment: pH” value (gel-like mucins [11]; degradation of gel-like mucins) was 7-8 and the “optimal working environment: reaction temperature” value (gel-like mucins [11]; degradation of gel-like mucins) was 34-37 °C. The “degradation effect on mucus” value [12] was “certain degradation effect”, the “viscosity of mucus after incubation” value [13] was “about 670 mPa s” and the “degradation efficiency of gel-like mucins in vivo” value ([1]; based on initial 0.30 g) was 78%. The “mass loss of gel-like mucins” value (gel-like mucins [2]; 40 μg enzyme, based on initial mass 0.1 g) was 90.33%, the “viscosity of mucus after incubation” value ([14]; 0.50 mL mucus, 750 uL, 37° C., 600 rpm, control about 1200 mPa s) was “about 7 mPa s” and the “appearance of mucus sample solution after incubation” value ([14]; after standing) was “becomes uniform”. The “degradation of patient-derived miscellaneous proteins (SDS-PAGE)” value [3] was “did not degrade these proteins”.
